Source: patent US20230136941A1, “IMPROVING PLANT NUTRITIONAL VALUE AND GROWTH THROUGH ENHANCEMENT OF ESSENTIAL AMINO ACID LEVELS” (Board of Trustees of Michigan State University, priority 2020, published 2023)

Columns and labels:
[1] = tested on: eva1 cotyledon epidermal cells expressing GFP-δTIP; assay: Confocal imaging of vacuole morphology after temporal chemical treatment of eva1 seedlings; assay type: cell-based, Arabidopsis thaliana
[2] = tested on: omr1-11^D cotyledon epidermal cells; assay: ER strand phenotype of omr1-11^D after Torin2 treatment; assay type: cell-based, Arabidopsis thaliana; settings: 2-hour Torin2 treatment
[3] = tested on: wild type (Col-0), eva1, ipms1-4 and ipms1-5 seedlings; assay: Primary root elongation of seedlings germinated and grown on medium containing chemical inhibitors (chronic treatment); assay type: in vivo, Arabidopsis thaliana
Description: Except for chronical treatments with specified chemicals, Arabidopsis seeds were stratified and grown on medium containing half-strength Linsmaier and Skoog nutrients (½ LS; Caisson Labs, LSP03), 1% sucrose and 0.4% phytagel (Sigma-Aldrich, P8169) in chambers configured with 21° C. and 16-hour light: 8-hour dark cycle.
In another pharmaceutical examination using AZD-8055, wortmannin and Lat B (FIG. 6A-6G, 6L-6Q), wild type (Col-0), eva1, ipms1-4 and ipms1-5 lines germinated and grew on vertically staged Petri dishes containing Arabidopsis growth medium containing specific chemical inhibitors.

[4] = tested on: wild type (Col-0), ipms1-4 and ipms1-5 seedlings; assay: Root growth after transplant of 10-day old seedlings to Lat B medium; assay type: in vivo, Arabidopsis thaliana
Description: To examine the effect of latrunculin B (Lat B) on root elongation (FIG. 6L-6Q), wild type (Col-0), ipms1-4 and ipms1-5 lines germinated and grew on horizontally staged Petri dishes containing Arabidopsis growth medium (½ LS, 1% sucrose and 0.4% phytagel). 10-day old seedlings were transplanted to Petri dishes containing ½ LS, 1% sucrose and 1% Agar (Acumedia, 7558A) medium containing DMSO or 50 nM Lat B or 100 nM Lat B. Photographs were acquired immediately after the transplant and the Petri dishes were vertically staged in a Percival chamber.
Photographs were also acquired 8 days after the transplant.
Experiments were designed to validate this hypothesis by testing the sensitivity of the ipms1 alleles to the F-actin depolymerizing reagent latrunculin B (Lat B) (Cao et al., 2016). The primary root length of 10-day old ipms1-4 and ipms1-5 was approximately 50% of WT (FIG. 4H-4I). Seedlings of all genotypes were then transferred to medium containing DMSO or 50 nM or 100 nM Lat B in DMSO.

[5] = tested on: wild type cotyledon epidermal cells expressing GFP-δTIP; assay: Confocal imaging of vacuole morphology after temporal chemical treatment of wild type seedlings; settings: 5 μM AZD-8055, 2 or 4 hours
[6] = 25 μM Lat B, two-hour treatment
[7] = nine-day old seedlings grown on Lat B medium (FIG. 6P-6Q)

With Nc1ccc(-c2ccc3ncc4ccc(=O)n(-c5cccc(C(F)(F)F)c5)c4c3c2)cn1 [Torin2, 9-(6-aminopyridin-3-yl)-1-(3-(trifluoromethyl)phenyl) benzo[h][1,6]naphthyridin-2(1H)-one] the “presumably unfused vacuoles and trans-vacuolar strands in eva1” value ([1]; 1 μM Torin2, 2 hours) was “no longer present” and the “enhanced ER strands in omr1-11^D” value [2] was “recovered”.
With C/C1=C/C(=O)O[C@@H]2C[C@@H](CC[C@H](C)/C=C\CC1)O[C@@](O)([C@@H]1CSC(=O)N1)C2 [Lat B, latrunculin B] the “small vacuoles in eva1” value [1, 6] was “persisted”, the “trans-vacuolar strands in eva1” value [1, 6] was “disappeared” and the “promotion of root elongation” value ([3]; Lat B treatment, chronic, increasing concentrations) was “not observed”. For the same compound, the “primary root length vs DMSO control, ipms1 mutants” value [3, 7] was “less effects”, the “primary root length vs DMSO control, wild type” value [3, 7] was “significant differences” and the “primary root length of ipms1-4 and ipms1-5 compared to WT” value ([4]; 50 nM Lat B, 8 days after transplant (DMSO medium: approximately 65%)) was 80%. The “formation of lateral roots in WT seedlings” value ([4]; 50 nM or 100 nM Lat B, 8 days after transplant) was “promoted the formation of lateral roots” and the “primary root length of ipms1-4 and ipms1-5 compared to WT” value ([4]; 100 nM Lat B, 8 days after transplant) was “not significantly different from WT”.
In the case of COc1ccc(-c2ccc3c(N4CCOC[C@@H]4C)nc(N4CCOC[C@@H]4C)nc3n2)cc1CO [AZD-8055], the “small vacuoles and trans-vacuolar strands in eva1” value ([1]; 5 μM AZD-8055, 2 hours) is reported as “reduced in appearance”, the “vacuole appearance of eva1 cells” value ([1]; 5 μM AZD-8055, 4 hours) is reported as “indistinguishable from wild type” and the “vacuolar mutant phenotypes of eva1 (FIG. 6A-6F legend)” value ([1]; legend prints 5 mM AZD-8055, 2 and 4 hours) is reported as “rescues vacuolar mutant phenotypes of eva1”. For the same compound, the “ipms1 primary root elongation” value ([3]; AZD-8055 higher concentrations (0.4, 0.6 and 1.0 μM), chronic) was “inhibited”, the “ipms1 primary root elongation” value ([3]; AZD-8055 lower concentrations (0.1 and 0.2 μM), chronic) was “promoted” and the “morphology of the central vacuole and trans-vacuolar strands in wild type cells” value [5] was “did not exhibit significant changes”.
